{"source": "patent US20050100940A1", "about": "“Novel FDRG protein and nucleic acid molecules and uses therefor” (Millennium Pharmaceuticals, Inc., priority 1998, published 2005)", "key": {"[1]": {"test_system": "FDRG mRNA in NIH3T3 fibroblasts stably expressing PPARγ", "test": "Northern blot of FDRG mRNA in NIH3T3 fibroblasts stably expressing PPARγ", "type": "cell-based, murine", "protocol": "NIH3T3 fibroblasts stably expressing PPARγ were treated with 10 μg/ml pioglitazone for 0, 2, and 4 hours."}, "[2]": {"test_system": "Male Zucker diabetic fatty (fa/fa) rats", "test": "Chronic troglitazone treatment of Zucker diabetic fatty rats, Northern blots of white adipose tissue", "type": "in vivo, rat", "settings": "6 mg/kg/day in food, after 4 and 20 weeks of treatment", "protocol": "This experiment describes analysis of FDRG mRNA levels in rats following chronic troglitazone treatment to determine if FDRG expresion is regulated by PPARγ in vivo. Male Zucker diabetic fatty (fa/fa) rats were treated with 6 mg/kg/day (1.2% w/v) troglitazone or placebo admixed with food starting at 6 weeks of age and continuing until 26 weeks. […] Northern blots were performed on RNA isolated from white adipose tissue of treated and untreated animals, four from each group, after 4 and 20 weeks of treatment. […] This was true even when normalized to aP2, a fat cell marker. Glut4 mRNA was also found to be elevated, in agreement with published reports by other groups. Ribosomal-associated 36B4 served as a loading control."}, "lean or ob/ob mice": {"test_system": "lean or ob/ob mice", "test": "Intraperitoneal leptin administration versus pair-fed mice, FDRG expression in brown fat", "type": "in vivo, mouse", "settings": "12.5 mg/kg leptin i.p. twice daily", "protocol": "In this study, 10 week old lean or ob/ob mice were divided into three groups. The first group was the control, intraperitoneally injected with 1.5 ml PBS twice daily. […] The third group, the pair-fed group, was diet restricted to match the amount of food intake by the leptin-injected group, and was also injected with PBS. The animals were sacrified at the end of one week. […] That may reflect a fundamental difference in leptin-induced dietary restriction versus externally imposed restriction, or may be consistent with a further downstream effect, e.g., leptin-mediated suppression of FDRG upregulation that would ordinarily result from reduced food intake."}}}
{"compound": "C[C@@H]1C[C@@H]([C@H](O)CC2CC(=O)NC(=O)C2)C(=O)[C@@H](C)C1", "note": "[cycloheximide]", "values": [{"measurement": "Effect on FDRG mRNA by itself", "setting": "[1]; 5 μg/ml cycloheximide alone", "value": "causes a rise in FDRG mRNA"}, {"measurement": "Effect of pre-treatment on pioglitazone induction of FDRG mRNA", "setting": "[1]; pre-treatment with 5 μg/ml cycloheximide, then 10 μg/ml pioglitazone", "value": "does not block this induction"}]}
{"compound": "CCc1ccc(CCOc2ccc(CC3SC(=O)NC3=O)cc2)nc1", "note": "(stereo not drawn) [pioglitazone]", "values": [{"measurement": "Increase in FDRG mRNA", "setting": "[1]; 10 μg/ml pioglitazone, within two hours, versus untreated cells", "value": "≥ 10", "unit": "fold"}]}
{"compound": "Cc1c(C)c2c(c(C)c1O)CCC(C)(COc1ccc(CC3SC(=O)NC3=O)cc1)O2", "note": "(stereo not drawn) [troglitazone]", "values": [{"measurement": "FDRG expression in vivo, upregulation versus controls", "setting": "[2]", "value": "3-5 fold"}]}
{"compound": "leptin: a protein secreted by fat cells, metabolic hormone", "values": [{"measurement": "Dietary intake", "setting": "lean or ob/ob mice", "value": "decrease in dietary intake"}, {"measurement": "FDRG expression in brown fat (rise seen with restriction of caloric intake)", "setting": "lean or ob/ob mice; one week, versus pair-fed group", "value": "this rise is not seen"}]}
